Target: T1, human kinase Mps-1 (Homo sapiens, UniProt P33981)
T1 construct: N-terminally GST-tagged human full length recombinant Mps-1 kinase; GST (N); purchased Invitrogen, Karslruhe, Germany PV4071
T1 sequence (P33981 1-857): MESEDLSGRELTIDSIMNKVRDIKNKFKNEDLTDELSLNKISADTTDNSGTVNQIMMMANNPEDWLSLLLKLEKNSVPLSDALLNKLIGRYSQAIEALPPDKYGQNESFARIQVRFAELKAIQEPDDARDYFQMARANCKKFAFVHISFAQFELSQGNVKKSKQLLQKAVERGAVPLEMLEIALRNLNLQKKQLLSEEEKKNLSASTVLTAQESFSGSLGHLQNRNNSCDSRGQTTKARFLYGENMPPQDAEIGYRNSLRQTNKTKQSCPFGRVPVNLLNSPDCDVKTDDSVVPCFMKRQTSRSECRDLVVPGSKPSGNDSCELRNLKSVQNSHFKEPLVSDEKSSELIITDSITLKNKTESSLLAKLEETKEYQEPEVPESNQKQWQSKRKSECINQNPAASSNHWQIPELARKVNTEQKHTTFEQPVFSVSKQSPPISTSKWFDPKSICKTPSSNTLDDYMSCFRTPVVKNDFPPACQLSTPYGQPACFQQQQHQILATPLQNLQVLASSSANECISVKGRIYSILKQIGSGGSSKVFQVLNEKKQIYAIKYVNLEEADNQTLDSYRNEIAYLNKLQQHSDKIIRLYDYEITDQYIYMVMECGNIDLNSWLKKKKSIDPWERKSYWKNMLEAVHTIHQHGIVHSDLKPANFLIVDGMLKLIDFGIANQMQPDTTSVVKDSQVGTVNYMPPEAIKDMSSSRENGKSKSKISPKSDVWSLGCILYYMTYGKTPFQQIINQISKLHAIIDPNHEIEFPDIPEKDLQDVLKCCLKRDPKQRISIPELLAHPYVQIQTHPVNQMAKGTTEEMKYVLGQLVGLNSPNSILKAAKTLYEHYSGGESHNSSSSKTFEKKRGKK
Experiment: Mps-1 kinase assay (TR-FRET)
Format: biochemical
Conditions: N-terminally GST-tagged human full length recombinant Mps-1; 10 μM ATP; 1 μM peptide substrate; 60 min at 22° C.; read-out: MPS1 Inhibition, IC50 in M
Protocol: The human kinase Mps-1 phosphorylates a biotinylated substrate peptide. Detection of the phosphorylated product is achieved by time-resolved fluorescence resonance energy transfer (TR-FRET) from Europium-labelled anti-phospho-Serine/Threonine antibody as donor to streptavidin labelled with cross-linked allophycocyanin (SA-XLent) as acceptor. Compounds are tested for their inhibition of the kinase activity.
N-terminally GST-tagged human full length recombinant Mps-1 kinase (purchased from Invitrogen, Karslruhe, Germany, cat. no PV4071) was used. […]
The resulting mixture was incubated 1 h at 22° C. to allow the binding of the phosphorylated peptide to the anti-phospho(Ser/Thr)-Europium-antibody. Subsequently the amount of phosphorylated substrate was evaluated by measurement of the resonance energy transfer from the Europium-labelled anti-phospho(Ser/Thr) antibody to the Streptavidin-XLent. Therefore, the fluorescence emissions at 620 nm and 665 nm after excitation at 350 nm was measured in a Viewlux TR-FRET reader (PerkinElmer LAS, Rodgau-Jügesheim, Germany). The “blank-corrected normalized ratio” (a Viewlux specific readout, similar to the traditional ratio of the emissions at 665 nm and at 622 nm, in which blank and Eu-donor crosstalk are subtracted from the 665 nm signal before the ratio is calculated) was taken as the measure for the amount of phosphorylated substrate. […]

- IC50: 1.8 nM
SMILES: Cc1c(-c2ccc(NC(=O)Cc3ccccc3)cc2)ccc2nc(Nc3ccccc3C#N)nn12 [Example 1.1, N-(4-{2-[(2-cyanophenyl)amino]-5-methyl[1,2,4]triazolo[1,5-a]pyridin-6-yl}phenyl)-2-phenylacetamide]

Reference: patent US8551980B2, “Substituted triazolopyridines” (Bayer Intellectual Property GmbH, priority 2009, dated 2013)
